Experimental data as given in article PMC7960226 (Science (New York, N.Y.), 2020).
pIC50, pKd: −log10 of the molar value. Where two headings read alike, the source gives them in different places. Marks after values point to notes of the source that are not given here.

Experiments:
[1] = Madin-Darby canine kidney permeability assay
[2] = Pharmacokinetics in rats after i.v. and oral administration
[3] = biological target: T1, PTGS2 (Homo sapiens, UniProt P35354); experiment: safety panel assay, PTGS2; format: biochemical; details: Table 2, PTGS2; accurate to ±20%
T1 sequence (P35354 18-604): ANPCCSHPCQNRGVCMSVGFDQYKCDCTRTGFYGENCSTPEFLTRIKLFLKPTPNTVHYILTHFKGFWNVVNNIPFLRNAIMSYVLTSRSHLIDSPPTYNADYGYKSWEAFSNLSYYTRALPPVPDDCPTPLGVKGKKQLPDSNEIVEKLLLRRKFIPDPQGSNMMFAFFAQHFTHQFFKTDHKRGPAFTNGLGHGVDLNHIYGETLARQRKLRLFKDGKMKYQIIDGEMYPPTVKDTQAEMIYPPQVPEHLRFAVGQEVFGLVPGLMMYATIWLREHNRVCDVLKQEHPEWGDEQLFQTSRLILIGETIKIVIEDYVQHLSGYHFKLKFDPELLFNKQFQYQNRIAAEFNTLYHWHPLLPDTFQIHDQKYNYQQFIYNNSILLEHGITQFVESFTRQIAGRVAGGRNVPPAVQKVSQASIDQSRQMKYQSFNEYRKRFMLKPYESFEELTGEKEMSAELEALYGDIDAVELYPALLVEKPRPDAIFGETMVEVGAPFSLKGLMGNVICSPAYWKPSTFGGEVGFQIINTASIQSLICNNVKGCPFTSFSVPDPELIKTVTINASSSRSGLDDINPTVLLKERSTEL

[4] = biological target: T2, SLCO2B1 (Homo sapiens, UniProt O94956); experiment: in vitro transporter inhibition, SLCO2B1; format: biochemical; details: Table 1, predicted target SLCO2B1
T2 sequence (O94956 1-709): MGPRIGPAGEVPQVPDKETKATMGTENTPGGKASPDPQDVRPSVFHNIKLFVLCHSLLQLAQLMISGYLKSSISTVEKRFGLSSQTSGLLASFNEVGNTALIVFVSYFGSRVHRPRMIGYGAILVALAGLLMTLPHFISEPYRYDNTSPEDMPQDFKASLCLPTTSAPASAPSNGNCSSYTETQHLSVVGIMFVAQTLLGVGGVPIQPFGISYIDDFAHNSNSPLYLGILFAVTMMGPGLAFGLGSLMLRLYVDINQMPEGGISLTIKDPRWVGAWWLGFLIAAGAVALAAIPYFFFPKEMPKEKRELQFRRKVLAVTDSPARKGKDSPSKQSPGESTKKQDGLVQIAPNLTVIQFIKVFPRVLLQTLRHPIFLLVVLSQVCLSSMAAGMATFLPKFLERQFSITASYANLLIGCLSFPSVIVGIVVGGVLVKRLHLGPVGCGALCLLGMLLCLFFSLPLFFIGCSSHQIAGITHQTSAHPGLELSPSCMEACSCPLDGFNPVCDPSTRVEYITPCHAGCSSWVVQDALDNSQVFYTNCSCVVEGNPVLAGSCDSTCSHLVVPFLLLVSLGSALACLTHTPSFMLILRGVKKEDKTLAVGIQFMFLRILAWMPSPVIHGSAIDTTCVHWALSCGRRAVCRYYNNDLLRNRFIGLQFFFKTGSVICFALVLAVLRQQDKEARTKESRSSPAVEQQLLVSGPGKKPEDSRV

[5] = rat, in vivo, 1 mg/kg
[6] = biological target: T3, SLCO1B1 (Homo sapiens, UniProt Q9Y6L6); experiment: in vitro transporter assay, SLCO1B1
T3 sequence (Q9Y6L6 1-691): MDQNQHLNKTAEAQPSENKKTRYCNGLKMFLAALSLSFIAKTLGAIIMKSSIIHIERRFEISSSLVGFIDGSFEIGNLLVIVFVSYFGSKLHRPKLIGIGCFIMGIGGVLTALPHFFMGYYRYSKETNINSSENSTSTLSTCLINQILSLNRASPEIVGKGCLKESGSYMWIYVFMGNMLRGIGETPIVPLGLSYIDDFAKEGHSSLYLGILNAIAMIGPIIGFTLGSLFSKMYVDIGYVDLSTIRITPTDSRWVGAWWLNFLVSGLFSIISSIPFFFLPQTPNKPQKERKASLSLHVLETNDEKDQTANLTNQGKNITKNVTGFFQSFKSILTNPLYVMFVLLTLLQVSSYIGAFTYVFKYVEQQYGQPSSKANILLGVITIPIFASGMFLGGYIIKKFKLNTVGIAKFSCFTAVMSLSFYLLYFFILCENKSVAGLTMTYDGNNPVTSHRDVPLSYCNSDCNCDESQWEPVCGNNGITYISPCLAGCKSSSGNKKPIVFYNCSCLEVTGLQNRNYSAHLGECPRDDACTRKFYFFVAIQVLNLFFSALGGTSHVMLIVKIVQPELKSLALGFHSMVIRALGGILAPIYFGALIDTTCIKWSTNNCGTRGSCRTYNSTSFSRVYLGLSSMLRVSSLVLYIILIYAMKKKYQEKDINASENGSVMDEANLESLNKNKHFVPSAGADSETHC

[7] = biological target: PDE4D (Homo sapiens, UniProt Q08499); experiment: in vitro assay, PDE4D; format: biochemical
[8] = test system: BioMAP Diversity PLUS panel; experiment: BioMAP Diversity PLUS panel of cell-based systems
[9] = rat, in vivo, cited from earlier work
[10] = biological target: DRD5 (Homo sapiens, UniProt P21918); experiment: in vitro assay, DRD5; format: binding
[11] = biological target: DRD3 (Homo sapiens, UniProt P35462); details: for pKd: read-out: dopamine D3 receptor Kd
[12] = human adults after repeated vaccination ref 43; cited from earlier work
[13] = biological target: SLC18A2 (Homo sapiens, UniProt Q05940); experiment: transporter inhibition, SLC18A2; format: biochemical; details: Table 2, SLC18A2; accurate to ±20%
[14] = biological target: PDE3A (Homo sapiens, UniProt Q14432); experiment: safety panel assay, PDE3A; format: biochemical; details: Table 2, PDE3A; accurate to ±20%
[15] = test system: rats; details: cited from earlier work
[16] = test system: rat brain; details: prenatal treatment, rat brain ref 51; cited from earlier work
[17] = biological target: T4, CHRM1 (Homo sapiens, UniProt P11229); details: Table 2, CHRM1; accurate to ±20%
T4 sequence (P11229 1-460): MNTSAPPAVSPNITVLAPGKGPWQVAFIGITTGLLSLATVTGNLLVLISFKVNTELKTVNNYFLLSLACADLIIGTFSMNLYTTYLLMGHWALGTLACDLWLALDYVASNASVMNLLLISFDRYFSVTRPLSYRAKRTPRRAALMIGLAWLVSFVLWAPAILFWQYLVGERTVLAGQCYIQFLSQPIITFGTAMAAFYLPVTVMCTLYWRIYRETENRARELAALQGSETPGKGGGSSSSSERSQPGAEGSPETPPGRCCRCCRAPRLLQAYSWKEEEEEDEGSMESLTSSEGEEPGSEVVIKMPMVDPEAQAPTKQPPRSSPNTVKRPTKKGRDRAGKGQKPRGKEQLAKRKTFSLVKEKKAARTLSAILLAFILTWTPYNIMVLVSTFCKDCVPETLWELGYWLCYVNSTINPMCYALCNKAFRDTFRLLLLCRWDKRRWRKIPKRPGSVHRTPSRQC

[18] = biological target: T5, ADRA1A (Homo sapiens, UniProt P35348); details: Table 2, ADRA1A; accurate to ±20%
T5 sequence (P35348 1-466): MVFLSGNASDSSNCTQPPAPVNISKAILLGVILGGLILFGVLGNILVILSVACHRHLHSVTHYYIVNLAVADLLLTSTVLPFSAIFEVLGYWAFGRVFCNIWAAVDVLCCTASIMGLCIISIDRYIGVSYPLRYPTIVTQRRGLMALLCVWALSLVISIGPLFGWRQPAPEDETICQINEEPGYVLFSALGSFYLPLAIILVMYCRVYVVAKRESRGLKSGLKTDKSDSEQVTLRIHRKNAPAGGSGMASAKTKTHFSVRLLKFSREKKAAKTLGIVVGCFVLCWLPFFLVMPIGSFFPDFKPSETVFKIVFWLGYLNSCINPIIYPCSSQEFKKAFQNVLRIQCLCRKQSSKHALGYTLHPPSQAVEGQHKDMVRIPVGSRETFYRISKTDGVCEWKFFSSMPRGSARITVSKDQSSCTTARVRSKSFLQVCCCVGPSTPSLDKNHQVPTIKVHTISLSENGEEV

[19] = biological target: SLC6A2 (Homo sapiens, UniProt P23975); details: Table 2, SLC6A2; accurate to ±20%
[20] = biological target: hERG ion channel (Homo sapiens, UniProt Q12809)
hERG ion channel, sequence (Q12809 whole entry): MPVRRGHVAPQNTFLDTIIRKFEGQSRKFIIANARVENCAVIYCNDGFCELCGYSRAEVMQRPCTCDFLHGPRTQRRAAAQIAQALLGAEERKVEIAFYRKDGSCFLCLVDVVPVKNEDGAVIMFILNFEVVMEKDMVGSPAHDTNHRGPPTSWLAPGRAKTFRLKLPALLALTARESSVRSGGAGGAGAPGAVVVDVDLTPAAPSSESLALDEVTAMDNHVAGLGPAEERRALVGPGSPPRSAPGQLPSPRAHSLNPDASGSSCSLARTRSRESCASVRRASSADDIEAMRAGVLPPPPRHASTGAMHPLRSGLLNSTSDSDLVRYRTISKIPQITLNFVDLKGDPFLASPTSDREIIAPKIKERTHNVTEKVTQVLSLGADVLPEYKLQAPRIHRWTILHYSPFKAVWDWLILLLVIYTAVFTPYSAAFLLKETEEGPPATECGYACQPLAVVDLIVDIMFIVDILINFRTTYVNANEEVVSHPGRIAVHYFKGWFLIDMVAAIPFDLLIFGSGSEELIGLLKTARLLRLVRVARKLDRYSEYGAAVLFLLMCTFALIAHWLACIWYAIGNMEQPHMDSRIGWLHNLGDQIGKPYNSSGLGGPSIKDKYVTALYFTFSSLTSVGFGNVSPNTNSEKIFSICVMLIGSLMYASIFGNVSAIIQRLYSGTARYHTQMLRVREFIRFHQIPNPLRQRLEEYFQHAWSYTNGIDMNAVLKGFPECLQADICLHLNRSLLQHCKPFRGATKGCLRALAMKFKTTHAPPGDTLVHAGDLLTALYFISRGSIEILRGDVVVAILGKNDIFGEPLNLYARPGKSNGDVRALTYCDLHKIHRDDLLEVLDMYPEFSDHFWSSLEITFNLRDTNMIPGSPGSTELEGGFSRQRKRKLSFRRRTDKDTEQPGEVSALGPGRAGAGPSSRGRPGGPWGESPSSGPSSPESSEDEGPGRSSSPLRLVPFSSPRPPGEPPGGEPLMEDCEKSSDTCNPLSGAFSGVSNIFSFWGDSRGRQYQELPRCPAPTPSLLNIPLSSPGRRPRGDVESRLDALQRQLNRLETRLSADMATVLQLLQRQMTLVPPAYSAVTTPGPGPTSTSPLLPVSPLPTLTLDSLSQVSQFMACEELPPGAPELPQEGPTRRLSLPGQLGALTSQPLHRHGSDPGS

DRD3, sequence (P35462 whole entry, species assumed): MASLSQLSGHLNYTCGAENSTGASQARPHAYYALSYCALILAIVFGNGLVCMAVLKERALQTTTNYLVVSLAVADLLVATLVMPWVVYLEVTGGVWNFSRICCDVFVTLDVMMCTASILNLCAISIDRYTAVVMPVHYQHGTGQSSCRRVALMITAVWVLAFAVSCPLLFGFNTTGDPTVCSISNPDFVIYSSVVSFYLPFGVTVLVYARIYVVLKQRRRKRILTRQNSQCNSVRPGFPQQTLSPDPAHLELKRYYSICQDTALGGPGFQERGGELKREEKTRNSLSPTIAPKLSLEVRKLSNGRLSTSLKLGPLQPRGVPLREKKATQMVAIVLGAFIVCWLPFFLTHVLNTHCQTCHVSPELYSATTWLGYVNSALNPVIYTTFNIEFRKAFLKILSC
SLC18A2, sequence (Q05940 whole entry, species assumed): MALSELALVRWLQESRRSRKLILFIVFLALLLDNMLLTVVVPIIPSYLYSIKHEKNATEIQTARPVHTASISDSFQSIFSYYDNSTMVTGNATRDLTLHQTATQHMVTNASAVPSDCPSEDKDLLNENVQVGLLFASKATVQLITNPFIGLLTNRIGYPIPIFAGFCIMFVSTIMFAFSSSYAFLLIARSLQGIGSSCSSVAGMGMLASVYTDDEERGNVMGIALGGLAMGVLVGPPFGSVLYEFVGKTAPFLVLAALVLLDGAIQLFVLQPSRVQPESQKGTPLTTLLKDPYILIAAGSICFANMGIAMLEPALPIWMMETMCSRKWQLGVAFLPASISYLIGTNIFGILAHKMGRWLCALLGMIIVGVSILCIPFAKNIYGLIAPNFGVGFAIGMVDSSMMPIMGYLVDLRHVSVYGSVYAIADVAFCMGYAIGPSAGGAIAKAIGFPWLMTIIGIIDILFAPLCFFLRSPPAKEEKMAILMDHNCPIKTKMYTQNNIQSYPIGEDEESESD
DRD5, sequence (P21918 whole entry, species assumed): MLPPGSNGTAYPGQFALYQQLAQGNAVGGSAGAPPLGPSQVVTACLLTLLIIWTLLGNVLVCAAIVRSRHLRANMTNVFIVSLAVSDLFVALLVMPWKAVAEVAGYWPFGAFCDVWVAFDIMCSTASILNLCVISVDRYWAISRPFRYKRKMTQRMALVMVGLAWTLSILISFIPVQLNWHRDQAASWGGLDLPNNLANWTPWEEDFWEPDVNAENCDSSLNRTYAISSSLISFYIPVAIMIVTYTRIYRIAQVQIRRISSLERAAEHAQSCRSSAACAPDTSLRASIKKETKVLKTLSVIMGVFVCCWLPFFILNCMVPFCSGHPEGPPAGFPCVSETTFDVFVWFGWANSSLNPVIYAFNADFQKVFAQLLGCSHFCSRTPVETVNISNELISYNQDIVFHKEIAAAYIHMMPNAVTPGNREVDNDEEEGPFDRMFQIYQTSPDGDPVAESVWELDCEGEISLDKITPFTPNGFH
PDE4D, sequence (Q08499 whole entry): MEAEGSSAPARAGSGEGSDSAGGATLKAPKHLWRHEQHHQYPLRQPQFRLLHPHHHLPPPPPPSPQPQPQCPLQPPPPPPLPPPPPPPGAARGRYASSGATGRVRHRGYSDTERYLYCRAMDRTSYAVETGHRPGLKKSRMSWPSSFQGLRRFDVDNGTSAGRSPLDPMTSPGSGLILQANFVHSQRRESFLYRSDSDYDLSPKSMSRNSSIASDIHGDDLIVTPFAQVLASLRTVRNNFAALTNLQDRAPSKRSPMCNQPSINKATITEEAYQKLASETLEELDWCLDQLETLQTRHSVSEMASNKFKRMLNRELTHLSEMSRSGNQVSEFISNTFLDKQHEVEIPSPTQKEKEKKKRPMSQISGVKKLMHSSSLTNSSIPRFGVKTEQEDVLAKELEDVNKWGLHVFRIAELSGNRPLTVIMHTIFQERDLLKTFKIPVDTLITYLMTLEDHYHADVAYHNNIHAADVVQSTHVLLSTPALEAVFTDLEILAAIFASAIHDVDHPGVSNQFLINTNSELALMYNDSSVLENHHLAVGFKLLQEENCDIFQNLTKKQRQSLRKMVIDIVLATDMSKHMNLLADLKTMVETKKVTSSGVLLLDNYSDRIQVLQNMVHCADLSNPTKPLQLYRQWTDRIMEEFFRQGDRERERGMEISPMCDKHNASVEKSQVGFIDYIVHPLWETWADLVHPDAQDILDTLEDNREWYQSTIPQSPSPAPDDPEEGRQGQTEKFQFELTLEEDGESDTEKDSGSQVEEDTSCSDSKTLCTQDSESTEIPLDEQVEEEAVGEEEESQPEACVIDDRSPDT
SLC6A2, sequence (P23975 whole entry, species assumed): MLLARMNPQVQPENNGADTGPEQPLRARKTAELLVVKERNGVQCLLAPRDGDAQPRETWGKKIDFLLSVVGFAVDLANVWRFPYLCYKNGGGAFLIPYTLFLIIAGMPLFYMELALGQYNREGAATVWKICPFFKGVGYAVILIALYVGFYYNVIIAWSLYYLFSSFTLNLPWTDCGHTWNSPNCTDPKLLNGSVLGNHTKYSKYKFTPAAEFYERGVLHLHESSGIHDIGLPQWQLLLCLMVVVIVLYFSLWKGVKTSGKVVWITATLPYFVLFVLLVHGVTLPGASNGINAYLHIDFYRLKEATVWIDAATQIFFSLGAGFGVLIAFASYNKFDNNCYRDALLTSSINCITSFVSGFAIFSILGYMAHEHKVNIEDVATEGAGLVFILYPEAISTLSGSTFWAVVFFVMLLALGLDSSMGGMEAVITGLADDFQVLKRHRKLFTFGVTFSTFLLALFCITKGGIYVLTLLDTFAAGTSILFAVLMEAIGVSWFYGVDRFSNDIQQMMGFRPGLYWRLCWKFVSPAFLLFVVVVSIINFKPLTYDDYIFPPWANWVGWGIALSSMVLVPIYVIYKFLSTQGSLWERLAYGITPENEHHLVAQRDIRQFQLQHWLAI

With `CCCCCCCCCCCCCCCC[n+]1ccccc1` [Cetylpyridinium chloride] the Papp ([1]; dog, MDCK) was < 0.5 ×10⁻⁶ cm/s, the bioavailability ([2]; rat, in vivo, 1 mg/kg) was 5.4% and the half-life ([2]; rat, in vivo, iv, 1 mg/kg) was 582 min. For the same compound, the Cmax ([2]; rat, in vivo, po, 1 mg/kg) was 260 nM, the “i.v. AUC 0–24 (d.n.)” value ([2]; rats, i.v. 1 mg/kg, dose normalized) was 15,972 nM-hour and the “Oral AUC 0–last (d.n.)” value ([2]; rats, oral 1 mg/kg, dose normalized) was 4,052 nM-hour.

With `N[C@@H](CS)C(=O)O` [Cysteine] the “Ki/IC50 Or EC50” value [3] was 4.7 µM.

`O=S(=O)([O-])c1ccc(N=Nc2c(O)ccc3ccccc23)cc1.[Na+]` [D&C Orange No. 4] gave a Ki/IC50 [4] of 1.9 µM.

For `Cc1ccc(N=Nc2c([O-])c(C(=O)O)cc3ccccc23)c(S(=O)(=O)[O-])c1.[Na+].[Na+]` [D&C Red No. 6], the “%F” value [5] was 2.5%, the pIC50 ([6]; Table 4, target SLCO1B1) was 5.51 and the “MDCK-LE Papp” value ([1]; apparent permeability, Madin-Darby canine kidney permeability assay) was <1.2e-06 cm/s.

For `CCOC(=O)c1ccccc1C(=O)OCC` [Diethyl phthalate], the Ki/IC50 ([7]; Table 1, PDE4D tested in place of SEA-predicted PDE4B and PDE1) is given as 8.5 µM, the TNF-α modulation ([8]; BioMAP, 1.1 to 30 μM) is given as “modulated tumor necrosis factor–α (TNF-α) in a dose-dependent manner” and the “i.v. AUC 0–24 (d.n.)” value ([9]; iv) is given as 553 ^† nM-hour. For the same compound, the “t1/2 from i.v. dose” value ([9]; iv) was 1.0 ^† hours, the Cmax ([9]; po) was 253 nM and the “Oral AUC 0–last (d.n.)” value ([9]; po) was 350 ^† nM-hour.

In the case of `CCCCC(CC)COC(=O)CC(C(=O)OCC(CC)CCCC)S(=O)(=O)O` (stereo not drawn) [Docusate sodium], the Ki/IC50 [4] was 2.3 µM.

For `C[CH2][Hg]` [Ethyl mercury], the “Ki/IC50 Or EC50” value ([10]; Table 2, DRD5, accurate to ±20%) was 0.15 µM, the pKd ([10]; read-out: dopamine D5 receptor Kd) was ~6.82 and the “Ki/IC50 Or EC50” value ([11]; Table 2, DRD3, accurate to ±20%) was 0.21 µM. The pKd [11] was ~6.68, the pKd ([11]; listed as major metabolite) was 6.68 and the “median blood concentration of ethyl mercury” value [12] was 0.14 ng/mL.

In the case of `CCOC(=O)c1ccc(O)cc1` [Ethylparaben], the “Ki/IC50 Or EC50” value [13] was 22 µM.

Compound `COc1cc(S(=O)(=O)[O-])c(C)cc1N=Nc1c(O)ccc2cc(S(=O)(=O)[O-])ccc12.[Na+].[Na+]` [FD&C Red No. 40] has a Ki/IC50 [4] of 4.7 µM.

With `O=S(=O)([O-])c1ccc(N=Nc2c(O)ccc3cc(S(=O)(=O)[O-])ccc23)cc1.[Na+].[Na+]` [FD&C Yellow No. 6] the Ki/IC50 [4] was 74 µM.

`CC1(C)[C@@H](O[C@H]2O[C@H](C(=O)O)[C@@H](O)[C@H](O)[C@H]2O[C@@H]2O[C@H](C(=O)O)[C@@H](O)[C@H](O)[C@H]2O)CC[C@]2(C)[C@H]3C(=O)C=C4[C@@H]5C[C@@](C)(C(=O)O)CC[C@]5(C)CC[C@@]4(C)[C@]3(C)CC[C@@H]12` [Glycyrrhizin] showed a Ki/IC50 ([6]; Table 1, predicted target SLCO1B1) of 13 µM.

In the case of `CCCCCCCCCCCCCCCC(=O)O` [Palmitic acid], the “Ki/IC50 Or EC50” value ([7]; Table 2, PDE4D, accurate to ±20%) was 6.6 µM, the “Ki/IC50 Or EC50” value [13] was 4.4 µM and the “Ki/IC50 Or EC50” value [14] was 4.1 µM.

In the case of `C[CH2][Hg][S]c1ccccc1C(=O)[O-].[Na+]` [Thimerosal], the pIC50 ([11]; Table 4, target DRD3) is listed as 6.49, the pKd [11] is listed as 6.49 and the “striatal D2 receptor density (immunohistochemistry)” value ([15]; rats ref 48) is listed as “decline in striatal D2 receptor density”. The behavioral effects ([15]; rats treated postnatally ref 48) was “impaired locomotor function, increased anxiety/neophobia in the open field, and alterations in social behavior” and the “effect on serotonergic and dopaminergic systems” value [16] was “impaired the serotonergic and dopaminergic systems in the rat brain”.

In the case of `Cc1ccc(C(C)C)c(O)c1` [Thymol], the “Ki/IC50 Or EC50” value [13] was 25 µM, the “Ki/IC50 Or EC50” value [17] was 14 µM and the “Ki/IC50 Or EC50” value [18] was 26 µM. The “Ki/IC50 Or EC50” value [19] was 28 µM.

For `CNC1(c2ccccc2Cl)CCCCC1=O` (stereo not drawn) [ketamine], the hERG activity [20] was “no detectable hERG activity”.

In the case of `CC(O)CO` (stereo not drawn) [propylene glycol], the “activity in the BioMAP cell-based systems” value ([8]; 1.1, 3.3, 10, 30 μM) was “no measurable activity”.
